Data reported in ChEMBL document CHEMBL4316596, “Antimicrobial Peptides with High Proteolytic Resistance for Combating Gram-Negative Bacteria” (J Med Chem, 2019).

Assays:
Escherichia coli [1] = assay: Antimicrobial activity against Escherichia coli 078 after 24 hrs by NCCLS-protocol based assay; format: functional
Escherichia coli [2] = assay: Bactericidal activity against Escherichia coli ATCC 25922 incubated for 4 hrs followed by culture spread on agar plates and cultured overnight; format: functional
Escherichia coli [3] = assay: Bactericidal activity against Escherichia coli K99 incubated for 4 hrs followed by culture spread on agar plates and cultured overnight; format: functional
[4] = tested on: Salmonella enterica subsp. enterica serovar Pullorum; assay: Antimicrobial activity against Salmonella pullorum C7913 after 24 hrs by NCCLS-protocol based assay; format: functional
Escherichia coli [5] = assay: Antimicrobial activity against Escherichia coli K88 after 24 hrs by NCCLS-protocol based assay; format: functional
Pseudomonas aeruginosa [6] = assay: Antimicrobial activity against Pseudomonas aeruginosa 25349 clinical isolates after 24 hrs by NCCLS-protocol based assay; format: functional
Pseudomonas aeruginosa [7] = assay: Bactericidal activity against Pseudomonas aeruginosa ATCC 27853 incubated for 4 hrs followed by culture spread on agar plates and cultured overnight; format: functional
Pseudomonas aeruginosa [8] = assay: Bactericidal activity against Pseudomonas aeruginosa CICC 21630 clinical isolates incubated for 4 hrs followed by culture spread on agar plates and cultured overnight; format: functional
Escherichia coli [9] = assay: Antimicrobial activity against Escherichia coli K99 after 24 hrs by NCCLS-protocol based assay; format: functional
Salmonella typhimurium [10] = assay: Bactericidal activity against Salmonella typhimurium C7731 incubated for 4 hrs followed by culture spread on agar plates and cultured overnight; format: functional; details: Salmonella enterica subsp. enterica serovar Typhimurium
Salmonella typhimurium [11] = assay: Antimicrobial activity against Salmonella typhimurium C7731 after 24 hrs by NCCLS-protocol based assay; format: functional; details: Salmonella enterica subsp. enterica serovar Typhimurium
Pseudomonas aeruginosa [12] = assay: Bactericidal activity against Pseudomonas aeruginosa 26305 clinical isolates incubated for 4 hrs followed by culture spread on agar plates and cultured overnight; format: functional
Acinetobacter baumannii [13] = assay: Antimicrobial activity against Acinetobacter baumannii after 24 hrs by NCCLS-protocol based assay; format: functional
Escherichia coli [14] = assay: Bactericidal activity against Escherichia coli K88 incubated for 4 hrs followed by culture spread on agar plates and cultured overnight; format: functional
Escherichia coli [15] = assay: Antimicrobial activity against Escherichia coli ATCC 25922 after 24 hrs by NCCLS-protocol based assay; format: functional
Salmonella typhimurium [16] = assay: Bactericidal activity against Salmonella typhimurium ATCC 14028 incubated for 4 hrs followed by culture spread on agar plates and cultured overnight; format: functional; details: Salmonella enterica subsp. enterica serovar Typhimurium
Pseudomonas aeruginosa [17] = assay: Antimicrobial activity against Pseudomonas aeruginosa CICC 21630 clinical isolates after 24 hrs by NCCLS-protocol based assay; format: functional
Pseudomonas aeruginosa [18] = assay: Antimicrobial activity against Pseudomonas aeruginosa ATCC 27853 after 24 hrs by NCCLS-protocol based assay; format: functional
Klebsiella pneumoniae [19] = assay: Antimicrobial activity against Klebsiella pneumoniae after 24 hrs by NCCLS-protocol based assay; format: functional
[20] = tested on: Salmonella enterica subsp. enterica serovar Pullorum; assay: Bactericidal activity against Salmonella pullorum C7913 incubated for 4 hrs followed by culture spread on agar plates and cultured overnight; format: functional
Escherichia coli [21] = assay: Antimicrobial activity against Escherichia coli UB1005 after 24 hrs by NCCLS-protocol based assay; format: functional
Escherichia coli [22] = assay: Bactericidal activity against Escherichia coli UB1005 incubated for 4 hrs followed by culture spread on agar plates and cultured overnight; format: functional
Pseudomonas aeruginosa [23] = assay: Ratio of MBC against Pseudomonas aeruginosa ATCC 27853 after 26 to 60 passages to MBC against Pseudomonas aeruginosa ATCC 27853; format: functional, organism-based
Pseudomonas aeruginosa [24] = assay: Antimicrobial activity against Pseudomonas aeruginosa CICC 21625 clinical isolates after 24 hrs by NCCLS-protocol based assay; format: functional
Salmonella typhimurium [25] = assay: Antimicrobial activity against Salmonella typhimurium ATCC 14028 after 24 hrs by NCCLS-protocol based assay; format: functional; details: Salmonella enterica subsp. enterica serovar Typhimurium
Pseudomonas aeruginosa [26] = assay: Bactericidal activity against Pseudomonas aeruginosa 25349 clinical isolates incubated for 4 hrs followed by culture spread on agar plates and cultured overnight; format: functional
Pseudomonas aeruginosa [27] = assay: Antimicrobial activity against Pseudomonas aeruginosa 26305 clinical isolates after 24 hrs by NCCLS-protocol based assay; format: functional
Pseudomonas aeruginosa [28] = assay: Bactericidal activity against Pseudomonas aeruginosa CICC 21625 clinical isolates incubated for 4 hrs followed by culture spread on agar plates and cultured overnight; format: functional
Pseudomonas aeruginosa [29] = assay: Bactericidal activity against Pseudomonas aeruginosa PAO1 incubated for 4 hrs followed by culture spread on agar plates and cultured overnight; format: functional
Escherichia coli [30] = assay: Bactericidal activity against Escherichia coli 078 incubated for 4 hrs followed by culture spread on agar plates and cultured overnight; format: functional
Klebsiella pneumoniae [31] = assay: Bactericidal activity against Klebsiella pneumoniae incubated for 4 hrs followed by culture spread on agar plates and cultured overnight; format: functional
Pseudomonas aeruginosa [32] = assay: Antimicrobial activity against Pseudomonas aeruginosa PAO1 after 24 hrs by NCCLS-protocol based assay; format: functional
Acinetobacter baumannii [33] = assay: Bactericidal activity against Acinetobacter baumannii incubated for 4 hrs followed by culture spread on agar plates and cultured overnight; format: functional

Sequence: GENTAMICIN
- MIC>95 (Escherichia coli [1]): 0.25 µM
- MBC>99.9 (Escherichia coli [2]): 2 µM
- MBC>99.9 (Escherichia coli [3]): 0.25 µM
- MIC>95 [4]: 1 µM
- MIC>95 (Escherichia coli [5]): 0.125 µM
- MIC>95 (Pseudomonas aeruginosa [6]): 2 µM
- MBC>99.9 (Pseudomonas aeruginosa [7]): 1 µM
- MBC>99.9 (Pseudomonas aeruginosa [8]): 2 µM
- MIC>95 (Escherichia coli [9]): 0.25 µM
- MBC>99.9 (Salmonella typhimurium [10]): 2 µM
- MIC>95 (Salmonella typhimurium [11]): 1 µM
- MBC>99.9 (Pseudomonas aeruginosa [12]): > 64 µM
- MIC>95 (Acinetobacter baumannii [13]): 0.25 µM
- MBC>99.9 (Escherichia coli [14]): 0.25 µM
- MIC>95 (Escherichia coli [15]): 1 µM
- MBC>99.9 (Salmonella typhimurium [16]): 2 µM
- MIC>95 (Pseudomonas aeruginosa [17]): 1 µM
- MIC>95 (Pseudomonas aeruginosa [18]): 1 µM
- MIC>95 (Klebsiella pneumoniae [19]): 0.5 µM
- MBC>99.9 [20]: 1 µM
- MIC>95 (Escherichia coli [21]): 0.25 µM
- MBC>99.9 (Escherichia coli [22]): 0.25 µM
- Ratio (Pseudomonas aeruginosa [23]): 32
- MIC>95 (Pseudomonas aeruginosa [24]): 1 µM
- MIC>95 (Salmonella typhimurium [25]): 1 µM
- MBC>99.9 (Pseudomonas aeruginosa [26]): 2 µM
- MIC>95 (Pseudomonas aeruginosa [27]): > 64 µM
- MBC>99.9 (Pseudomonas aeruginosa [28]): 1 µM
- MBC>99.9 (Pseudomonas aeruginosa [29]): 2 µM
- MBC>99.9 (Escherichia coli [30]): 0.5 µM
- MBC>99.9 (Klebsiella pneumoniae [31]): 0.5 µM
- MIC>95 (Pseudomonas aeruginosa [32]): 2 µM
- MBC>99.9 (Acinetobacter baumannii [33]): 0.5 µM
